Test results published in patent publication US4879311A, “Derivatives of benzoyloxyacetic acid, and preparation and formulations thereof for therapeutic use” (Inverni della Beffa S.p.A., priority 1987, dated 1989).
Structures can show the parent of a compound that is named as a salt.

Test: pH of aqueous solution
Assay type: physicochemical
Conditions: 1% aqueous solution

Cc1ccc(Cl)c(Nc2ccccc2C(=O)OCC(=O)O)c1Cl [Ic, d,l-lysine salt (Ic) of 2-[(2,6-dichloro-3-methylphenyl)-amino]benzoyloxyacetic acid]
pH in 1% aqueous solution: 6.75
